Measurements: the NIST ThermoML archive (doi:10.1021/je0301040)
± gives the expanded uncertainty stated by the source.

Test: xn = mol fraction of the nth substance listed
Details: Liquid

SMILES: FC(Cl)(Cl)Cl [trichlorofluoromethane] + FC(F)Cl
- mass density (230 K, 25860 kPa, Pycnometric method, x1 = 0.8336): 1641.63 ± 1.8 kg/m3
- mass density (230.01 K, 668.5 kPa, Pycnometric method, x1 = 0.8336): 1604.47 ± 2 kg/m3
- mass density (230.01 K, 1004 kPa, Pycnometric method, x1 = 0.8336): 1605.02 ± 2 kg/m3
- mass density (230.01 K, 2033.3 kPa, Pycnometric method, x1 = 0.8336): 1606.97 ± 2 kg/m3
- mass density (230.01 K, 2374.4 kPa, Pycnometric method, x1 = 0.8336): 1607.47 ± 2 kg/m3
- mass density (230.01 K, 2689.9 kPa, Pycnometric method, x1 = 0.8336): 1608.01 ± 2 kg/m3
- mass density (230.01 K, 3067 kPa, Pycnometric method, x1 = 0.8336): 1608.63 ± 2 kg/m3
- mass density (230.01 K, 3637.3 kPa, Pycnometric method, x1 = 0.8336): 1609.58 ± 2 kg/m3
- mass density (230.01 K, 12707 kPa, Pycnometric method, x1 = 0.8336): 1623.4 ± 1.9 kg/m3
- mass density (230.01 K, 65252 kPa, Pycnometric method, x1 = 0.8336): 1686.03 ± 1.7 kg/m3
- mass density (230.02 K, 1691.3 kPa, Pycnometric method, x1 = 0.8336): 1606.39 ± 2 kg/m3
- mass density (230.02 K, 38513 kPa, Pycnometric method, x1 = 0.8336): 1657.76 ± 1.8 kg/m3
- mass density (230.02 K, 51629 kPa, Pycnometric method, x1 = 0.8336): 1672.95 ± 1.8 kg/m3
- mass density (232.01 K, 344.5 kPa, isochoric method, x1 = 0.832): 1585.93 ± 0.49 kg/m3
- mass density (232.01 K, 367.9 kPa, isochoric method, x1 = 0.832): 1585.93 ± 0.49 kg/m3
- mass density (233.01 K, 1630.1 kPa, isochoric method, x1 = 0.832): 1585.8 ± 0.49 kg/m3
- mass density (234.01 K, 2889.9 kPa, isochoric method, x1 = 0.832): 1585.67 ± 0.49 kg/m3
- mass density (245.01 K, 363.7 kPa, isochoric method, x1 = 0.832): 1556.16 ± 0.48 kg/m3
- mass density (246.5 K, 2106.6 kPa, isochoric method, x1 = 0.832): 1555.98 ± 0.48 kg/m3
- mass density (248 K, 3843.5 kPa, isochoric method, x1 = 0.832): 1555.8 ± 0.48 kg/m3
- mass density (248 K, 3865.5 kPa, isochoric method, x1 = 0.832): 1555.8 ± 0.48 kg/m3
- mass density (248.01 K, 3870.3 kPa, isochoric method, x1 = 0.832): 1555.8 ± 0.48 kg/m3
- mass density (249 K, 4990.8 kPa, isochoric method, x1 = 0.832): 1555.68 ± 0.48 kg/m3
- mass density (264.5 K, 1262.1 kPa, isochoric method, x1 = 0.832): 1513.38 ± 0.46 kg/m3
- mass density (266.5 K, 3302.5 kPa, isochoric method, x1 = 0.832): 1513.15 ± 0.47 kg/m3
- mass density (268 K, 4830.1 kPa, isochoric method, x1 = 0.832): 1512.98 ± 0.47 kg/m3
- mass density (268 K, 4846.4 kPa, isochoric method, x1 = 0.832): 1512.98 ± 0.47 kg/m3
- mass density (269.99 K, 2096.8 kPa, Pycnometric method, x1 = 0.8336): 1502.82 ± 1.9 kg/m3
- mass density (269.99 K, 21561 kPa, Pycnometric method, x1 = 0.8336): 1541.21 ± 1.4 kg/m3
- mass density (269.99 K, 41933 kPa, Pycnometric method, x1 = 0.8336): 1573.88 ± 1.3 kg/m3
- mass density (270 K, 378 kPa, Pycnometric method, x1 = 0.8336): 1498.95 ± 1.9 kg/m3
- mass density (270 K, 696 kPa, Pycnometric method, x1 = 0.8336): 1499.67 ± 1.9 kg/m3
- mass density (270 K, 1081 kPa, Pycnometric method, x1 = 0.8336): 1500.54 ± 1.9 kg/m3
- mass density (270 K, 1383.8 kPa, Pycnometric method, x1 = 0.8336): 1501.23 ± 1.9 kg/m3
- mass density (270 K, 1742 kPa, Pycnometric method, x1 = 0.8336): 1502.02 ± 1.9 kg/m3
- mass density (270 K, 2410 kPa, Pycnometric method, x1 = 0.8336): 1503.54 ± 1.9 kg/m3
- mass density (270 K, 2708.1 kPa, Pycnometric method, x1 = 0.8336): 1504.16 ± 1.9 kg/m3
- mass density (270 K, 3130 kPa, Pycnometric method, x1 = 0.8336): 1505.05 ± 1.9 kg/m3
- mass density (270 K, 3854.5 kPa, Pycnometric method, x1 = 0.8336): 1506.62 ± 1.9 kg/m3
- mass density (270 K, 7625.3 kPa, Pycnometric method, x1 = 0.8336): 1514.59 ± 1.6 kg/m3
- mass density (270 K, 14726 kPa, Pycnometric method, x1 = 0.8336): 1528.68 ± 1.8 kg/m3
- mass density (270 K, 27467 kPa, Pycnometric method, x1 = 0.8336): 1551.32 ± 1.7 kg/m3
- mass density (270 K, 35271 kPa, Pycnometric method, x1 = 0.8336): 1563.81 ± 1.4 kg/m3
- mass density (270 K, 48894 kPa, Pycnometric method, x1 = 0.8336): 1583.8 ± 1.3 kg/m3
- mass density (270 K, 55535 kPa, Pycnometric method, x1 = 0.8336): 1592.86 ± 1.3 kg/m3
- mass density (270 K, 62211 kPa, Pycnometric method, x1 = 0.8336): 1601.52 ± 1.3 kg/m3
- mass density (288 K, 932.5 kPa, isochoric method, x1 = 0.832): 1464.29 ± 0.45 kg/m3
- mass density (290 K, 2670 kPa, isochoric method, x1 = 0.832): 1464.09 ± 0.45 kg/m3
- mass density (293 K, 5258.3 kPa, isochoric method, x1 = 0.832): 1463.78 ± 0.46 kg/m3
- mass density (293 K, 5259.5 kPa, isochoric method, x1 = 0.832): 1463.78 ± 0.46 kg/m3
- mass density (298.14 K, 1069.1 kPa, Pycnometric method, x1 = 0.8336): 1439.09 ± 1.8 kg/m3
- mass density (298.14 K, 1772.4 kPa, Pycnometric method, x1 = 0.8336): 1441.18 ± 1.8 kg/m3
- mass density (298.14 K, 2113.1 kPa, Pycnometric method, x1 = 0.8336): 1442.22 ± 1.8 kg/m3
- mass density (298.14 K, 2728.2 kPa, Pycnometric method, x1 = 0.8336): 1444.75 ± 1.8 kg/m3
- mass density (298.14 K, 3032.4 kPa, Pycnometric method, x1 = 0.8336): 1445.59 ± 1.8 kg/m3
- mass density (298.14 K, 21180 kPa, Pycnometric method, x1 = 0.8336): 1490.62 ± 1.6 kg/m3
- mass density (298.14 K, 49069 kPa, Pycnometric method, x1 = 0.8336): 1542.62 ± 1.4 kg/m3
- mass density (298.14 K, 63135 kPa, Pycnometric method, x1 = 0.8336): 1564.13 ± 1.4 kg/m3
- mass density (298.15 K, 390.2 kPa, Pycnometric method, x1 = 0.8336): 1436.97 ± 1.8 kg/m3
- mass density (298.15 K, 717.7 kPa, Pycnometric method, x1 = 0.8336): 1438.05 ± 1.8 kg/m3
- mass density (298.15 K, 1383.5 kPa, Pycnometric method, x1 = 0.8336): 1440.04 ± 1.8 kg/m3
- mass density (298.15 K, 2381.3 kPa, Pycnometric method, x1 = 0.8336): 1443.01 ± 1.8 kg/m3
- mass density (298.15 K, 2409.4 kPa, Pycnometric method, x1 = 0.8336): 1443.8 ± 1.8 kg/m3
- mass density (298.15 K, 3541.1 kPa, Pycnometric method, x1 = 0.8336): 1447.03 ± 1.8 kg/m3
- mass density (298.15 K, 7060.4 kPa, Pycnometric method, x1 = 0.8336): 1456.68 ± 1.7 kg/m3
- mass density (298.15 K, 14256 kPa, Pycnometric method, x1 = 0.8336): 1474.84 ± 1.6 kg/m3
